According to patent US10918713B2, “Epitopes from allergen proteins and methods and uses for immune response modulation” (LA JOLLA INSTITUTE FOR ALLERGY AND IMMUNOLOGY, priority 2012, dated 2021):
Where “and” joins values, the source holds several entries; their conditions need not be identical. Identical values can stand only once.

Tests used:
Format in all cases: cell-based, human
[1] = test system: PBMC from allergic donors; assay: IL-5 ELISPOT with extract-stimulated short-term lines; conditions: positive donor/peptide response
Protocol: (§1) Spots were counted by computer-assisted image analysis (Zeiss, KS-ELISPOT reader, Munich, Germany).
(§2) Each assay was performed in triplicate. The level of statistical significance was determined with a Student's t-test using the mean of triplicate values of the response against relevant pools or individual peptides versus the response against the DMSO control.

[2] = test system: PBMC from allergic donors; assay: IFN-γ ELISPOT with extract-stimulated short-term lines; conditions: positive donor/peptide response
Protocol: as §1, §2

[3] = test system: PBMC from allergic donors; assay: Dual ELISPOT, total IL-5 and IFN-γ response (SFC); conditions: sum of IFNg and IL-5
Protocol: as §1, §2

Molecule | Response (SFC/10^6) IL-5 ([1]; one donor per table line) | Response (SFC/10^6) IFNg ([2]; one donor per table line) | Response (SFC/10^6) IL-5 ([1]; each table line is one donor) | Response (SFC/10^6) IFNg ([2]; each table line is one donor) [SFC/10^6] | Response (SFC/10^6) Total ([3]; each table line is one donor) | Response (SFC/10^6) Total ([3]; one donor per table line)
3324.0001 (AVGLLKAVESYLLAH) | 597 SFC/10^6 | 597 SFC/10^6 | – | – | – | –
3324.0099 (MKNIFMLTLFILIIT) | – | – | 57 SFC/10^6 | 77 | 57 SFC/10^6 and 77 SFC/10^6 | –
3324.0102 (DKWLDAKSTWYGKPT) | 147 SFC/10^6 | 447 SFC/10^6 and 233 SFC/10^6 and 123 SFC/10^6 | – | – | – | 593 SFC/10^6 and 233 SFC/10^6 and 123 SFC/10^6
3324.0382 (LYPDVKYTTVEEYLQ) | 67 SFC/10^6 | 67 SFC/10^6 | – | – | – | –
3324.0613 (MNIKLQMPLYVAGYK) | 652 SFC/10^6 | 120 SFC/10^6 | – | – | – | 652 SFC/10^6 and 120 SFC/10^6
3324.0660 (IPTAFKIGTTYTPEE) | 170 SFC/10^6 | 110 SFC/10^6 | – | – | – | 280 SFC/10^6
3324.0834 (KAFNKSYATFEDEEA) | 703 SFC/10^6 | 1563 SFC/10^6 | – | – | – | 2267 SFC/10^6
3324.0836 (EIDLRQMRTVTPIRM) | 613 SFC/10^6 | 120 SFC/10^6 | – | – | – | 733 SFC/10^6
3324.0842 (GGAINHLSDLSLDEF) | 603 SFC/10^6 | 170 SFC/10^6 | – | – | – | 773 SFC/10^6
3324.1104 (LGFFKKEALPQCAQV) | 573 SFC/10^6 | 53 SFC/10^6 | – | – | – | 627 SFC/10^6
3324.1166 (HTVALFLAVALVAGP) | – | – | – | 53 | 53 SFC/10^6 | –
3324.1168 (NAGFKAAVAAAAVVP) | – | – | 873 SFC/10^6 and 977 SFC/10^6 and 248 SFC/10^6 | 850 | 1723 SFC/10^6 and 977 SFC/10^6 and 248 SFC/10^6 | –
3324.1169 (DAALKLAYEAAQGAT) | – | – | – | 120 | 120 SFC/10^6 | –
3324.1171 (KTFVETFGTATNKAF) | – | – | – | 73 | 73 SFC/10^6 | –
3324.1177 (AAVKQAYAAKQATAP) | – | – | – | 43 | 43 SFC/10^6 | –
3324.1180 (PEAKYDAYVATLTEA) | – | – | – | 227 | 227 SFC/10^6 | –
3324.1443 (DAAYRVAYEAAEGST) | – | – | – | 70 | 70 SFC/10^6 | –
3324.1586 (KAVEAYLVAHPDLYK) | 83 SFC/10^6 and 53 SFC/10^6 and 143 SFC/10^6 and 443 SFC/10^6 | 110 SFC/10^6 | – | – | – | 83 SFC/10^6 and 53 SFC/10^6 and 143 SFC/10^6 and 553 SFC/10^6
3324.1592 (LGRAWFEAARVVFSY) | – | – | 1430 SFC/10^6 | 120 | 1550 SFC/10^6 | –

Molecule | Response (SFC/10^6) IL-5 ([1]; one donor per table line) | Response (SFC/10^6) IFNg ([2]; one donor per table line) | Response (SFC/10^6) IL-5 ([1]; each table line is one donor) | Response (SFC/10^6) IFNg ([2]; each table line is one donor) [SFC/10^6] | Response (SFC/10^6) Total ([3]; each table line is one donor) | Response (SFC/10^6) Total ([3]; one donor per table line)
3324.1625 (GFYLQWAVHSFRITN) | – | – | 143 SFC/10^6 | 193 | 337 SFC/10^6 | –
3324.1636 (FFSANAAALASRKSS) | – | – | – | 93 | 93 SFC/10^6 | –
3324.1647 (SLATLQSLESIVGKD) | – | – | – | 228 | 228 SFC/10^6 | –
3324.1653 (FDLYFSMARGNASLP) | – | – | – | 343 | 343 SFC/10^6 | –
3337.0006 (KQEDDGLCYEGTNCG) | – | – | – | 123 | 123 SFC/10^6 | –
3337.0007 (GKYCVCYDSKAICNK) | – | – | – | 47 | 47 SFC/10^6 | –
3337.0008 (WLDAKSTWYGKPTGA) | 57 SFC/10^6 | 140 SFC/10^6 and 283 SFC/10^6 and 163 SFC/10^6 | – | – | – | 140 SFC/10^6 and 57 SFC/10^6 and 283 SFC/10^6 and 163 SFC/10^6
3337.0028 (EPIAPYHFDLSGHAF) | 97 SFC/10^6 | 157 SFC/10^6 | – | – | – | 253 SFC/10^6
3337.0039 (SWGAIWRIDTPDKLT) | – | – | – | 155 | 155 SFC/10^6 | –
3337.0044 (IKLVKSSRPDCSEIP) | – | – | 233 SFC/10^6 | 90 | 90 SFC/10^6 and 233 SFC/10^6 | –
CC[C@H](C)[C@H](NC(=O)[C@H](Cc1ccccc1)NC(=O)[C@H](C)NC(=O)[C@H](CCCCN)NC(=O)[C@H](Cc1ccccc1)NC(=O)[C@H](CC(C)C)NC(=O)[C@H](CCCNC(=N)N)NC(=O)[C@H](C)NC(=O)[C@H](C)NC(=O)[C@@H]1CCCN1C(=O)[C@@H](NC(=O)[C@@H](NC(=O)[C@H](CO)NC(=O)[C@@H]1CCCN1)C(C)C)[C@@H](C)CC)C(=O)N[C@@H](CC(C)C)C(=O)O [3324.0004] | – | 683 SFC/10^6 | – | – | – | 683 SFC/10^6
CC[C@H](C)[C@H](NC(=O)[C@H](CO)NC(=O)CNC(=O)CN)C(=O)N[C@@H](CC(C)C)C(=O)N[C@@H](CCCCN)C(=O)N[C@H](C(=O)N[C@@H](CO)C(=O)N[C@@H](CC(N)=O)C(=O)N[C@@H](CCCCN)C(=O)N[C@@H](Cc1ccccc1)C(=O)N[C@@H](Cc1c[nH]cn1)C(=O)N[C@H](C(=O)N[C@@H](CCCCN)C(=O)NCC(=O)O)[C@@H](C)O)[C@@H](C)CC [3324.0007] | – | 887 SFC/10^6 and 357 SFC/10^6 | – | – | – | 887 SFC/10^6 and 357 SFC/10^6
CC[C@H](C)[C@H](N)C(=O)N[C@H](C(=O)N[C@@H](Cc1ccc(O)cc1)C(=O)N[C@H](C(=O)N[C@@H](CCCCN)C(=O)N1CCC[C@H]1C(=O)N[C@@H](C)C(=O)N[C@@H](CCCCN)C(=O)N[C@@H](CC(N)=O)C(=O)N[C@H](C(=O)N[C@@H](Cc1ccc(O)cc1)C(=O)N[C@@H](CO)C(=O)N[C@@H](Cc1ccccc1)C(=O)N[C@@H](CC(N)=O)C(=O)N[C@@H](CCC(=O)O)C(=O)O)[C@@H](C)CC)[C@@H](C)CC)C(C)C [3324.0386] | – | 227 SFC/10^6 and 487 SFC/10^6 | – | – | – | 227 SFC/10^6 and 487 SFC/10^6
CC[C@H](C)[C@H](NC(=O)[C@H](CC(N)=O)NC(=O)[C@H](CCCCN)NC(=O)[C@H](C)NC(=O)[C@@H]1CCCN1C(=O)[C@H](CCCCN)NC(=O)[C@@H](NC(=O)[C@H](Cc1ccc(O)cc1)NC(=O)[C@@H](NC(=O)[C@@H](NC(=O)[C@H](CCCCN)NC(=O)[C@H](CC(N)=O)NC(=O)[C@H](CC(C)C)NC(=O)[C@@H](NC(=O)[C@@H](N)CCCNC(=N)N)[C@@H](C)O)[C@@H](C)CC)C(C)C)[C@@H](C)CC)C(=O)O [3324.0387] | – | 580 SFC/10^6 and 140 SFC/10^6 | – | – | – | 580 SFC/10^6 and 140 SFC/10^6
CC[C@H](C)[C@H](NC(=O)[C@H](CC(N)=O)NC(=O)[C@H](CC(C)C)NC(=O)[C@H](CC(N)=O)NC(=O)[C@H](CCCCN)NC(=O)[C@H](CO)NC(=O)[C@H](Cc1ccccc1)NC(=O)[C@@H](NC(=O)[C@@H](NC(=O)[C@H](Cc1c[nH]c2ccccc12)NC(=O)[C@H](CC(C)C)NC(=O)[C@H](CO)NC(=O)[C@H](CCCNC(=N)N)NC(=O)[C@@H](N)CCC(=O)O)[C@@H](C)CC)[C@@H](C)CC)C(=O)N[C@@H](CCCCN)C(=O)O [3324.0517] | 117 SFC/10^6 | 97 SFC/10^6 | – | – | – | 117 SFC/10^6 and 97 SFC/10^6
CC[C@H](C)[C@H](NC(=O)[C@H](CC(N)=O)NC(=O)[C@H](CCSC)NC(=O)[C@H](CC(N)=O)NC(=O)[C@H](CCC(N)=O)NC(=O)[C@H](CO)NC(=O)[C@H](Cc1ccccc1)NC(=O)[C@@H](NC(=O)[C@@H](NC(=O)[C@H](Cc1c[nH]c2ccccc12)NC(=O)[C@H](CC(C)C)NC(=O)[C@H](C)NC(=O)[C@@H](N)CCCCN)[C@@H](C)CC)[C@@H](C)CC)C(=O)N[C@@H](CCCCN)C(=O)N[C@@H](CC(C)C)C(=O)O [3324.0604] | – | 390 SFC/10^6 | – | – | – | 390 SFC/10^6
CC[C@H](C)[C@H](NC(=O)[C@H](CC(N)=O)NC(=O)[C@@H](NC(=O)[C@H](CC(=O)O)NC(=O)[C@@H](N)CCC(=O)O)[C@@H](C)O)C(=O)N[C@@H](Cc1ccc(O)cc1)C(=O)N[C@@H](CC(N)=O)C(=O)N[C@@H](CO)C(=O)N[C@@H](CC(N)=O)C(=O)N[C@@H](CCC(=O)O)C(=O)N[C@@H](C)C(=O)N[C@@H](Cc1ccccc1)C(=O)N[C@@H](CCCCN)C(=O)N[C@H](C(=O)N[C@@H](CCC(=O)O)C(=O)O)C(C)C [3324.0606] | 427 SFC/10^6 | 240 SFC/10^6 and 73 SFC/10^6 | – | – | – | 427 SFC/10^6 and 240 SFC/10^6 and 73 SFC/10^6
CC[C@H](C)[C@H](N)C(=O)N[C@@H](Cc1ccccc1)C(=O)N[C@@H](CO)C(=O)N[C@@H](CCC(N)=O)C(=O)N[C@@H](CC(N)=O)C(=O)N[C@@H](CCSC)C(=O)N[C@@H](CC(N)=O)C(=O)N[C@H](C(=O)N[C@@H](CCCCN)C(=O)N[C@@H](CC(C)C)C(=O)N[C@@H](CCC(N)=O)C(=O)N[C@@H](CCSC)C(=O)N1CCC[C@H]1C(=O)N[C@@H](CC(C)C)C(=O)N[C@@H](Cc1ccc(O)cc1)C(=O)O)[C@@H](C)CC [3324.0607] | 2607 SFC/10^6 | 70 SFC/10^6 | – | – | – | 2607 SFC/10^6 and 70 SFC/10^6
